According to US20190357538A1, “An Antifungal Composition Comprising Natamycin and C4-C22 Fatty Acids, Monoglycerides of These Fatty Acids and/or Derivatives of These Fatty Acids” (Arec Crop Protection B.V., priority 2015, published 2019):
Counter-ions that a name gives are not always drawn. Each block holds one molecule with its values, some of them ahead of it.

Legend:
Saccharomyces cerevisiae [1] = test: filter disc inhibition zone on Petri dishes (90 mm), Example 3; type: cell-based; conditions: for surface of inhibition zone: 90 mm dish, after 16 h
Description: Saccharomyces cerevisiae (at least 10^5 cfu/ml) was distributed on Petri dishes with a diameter of 145 mm containing 30 ml Potato Dextrose Agar (PDA; Carl Roth; pH of about 6) using sterilized swabs. Filter paper discs (Whatman, Antibiotic Assay Paper, grade AA) with a diameter of 6 mm were loaded with 40 μl of a solution of 3 mM natamycin (Chinonbio, China, 95%) plus 0, 0.03, 0.09, 0.3 or 0.9 mM of sodium salts of butanoic acid (Carl Roth >99%), caprylic acid (Carl Roth, >99.5%), palmitic acid (Sigma, sodium palmitate 98.5) or stearic acid (Carl Roth, sodium stearate 88-92%). As controls, the effects of the fatty acid salts alone (without natamycin) were tested. Yeast growth was also measured after incubation on medium without natamycin and fatty acid salts.
Following the application of a filter, Petri dishes were incubated upside down for 24 h in a refrigerator at 4° C. to allow diffusion of natamycin into the agar. After 24 h the filter discs were removed from the agar and the Petri dishes were incubated upside down in a stove at 30° C. […] After 16 h incubation in the stove the size of the inhibition zone was determined using a digital caliper gauge. The data are presented as square mm and are an average of four replicas.
The experiment was performed as described in example 2, except that the diameter of the petri dishes was 90 mm. Measurement of the inhibition zone was after 16 hours.

Saccharomyces cerevisiae [2] = test: filter disc inhibition zone on PDA Petri dishes (145 mm), Example 2; type: cell-based; conditions: after 16 h
Description: Saccharomyces cerevisiae (at least 10^5 cfu/ml) was distributed on Petri dishes with a diameter of 145 mm containing 30 ml Potato Dextrose Agar (PDA; Carl Roth; pH of about 6) using sterilized swabs. […] As controls, the effects of the fatty acid salts alone (without natamycin) were tested. Yeast growth was also measured after incubation on medium without natamycin and fatty acid salts. Following the application of a filter, Petri dishes were incubated upside down for 24 h in a refrigerator at 4° C. to allow diffusion of natamycin into the agar. After 24 h the filter discs were removed from the agar and the Petri dishes were incubated upside down in a stove at 30° C. […] After 16 h incubation in the stove the size of the inhibition zone was determined using a digital caliper gauge. The data are presented as square mm and are an average of four replicas.

[3] = test system: Fusarium oxysporum f. sp. cubense; test: in vitro 96-well microtiter plate assay, visible mould development; type: cell-based; conditions: substance alone
Botrytis cinerea = test: rot on wounded apples inoculated with Botrytis cinerea; type: in vivo; conditions: 3 mM natamycin; for Lesion area on apple fruits: 0 FA; for Antifungal activity (%): apple fruits
Description: Tested fruit: apples cv Maribelle from organic origin/SKAL certified. SKAL is a semi-governmental Dutch organization that controls organic production in the Netherlands. Wounds of the apples were checked at day 5 and 7. A mixture of fatty acid sodium salts containing oleic acid sodium salt and stearic acid sodium salt in a 50/50 ratio was used in this experiment and will be referred to as fatty acid mix. Used pathogen: Botrytis cinerea spore-suspension containing 10^6 spores/ml. Application: The fruit peel of the apple was damaged with a cork borer, ø 4 mm and depth ˜0.5 cm into the fruit, with 2 wounds per apple. 40 microliter of a freshly prepared spore suspension of B. cinerea was applied by pipette onto each wound. Subsequently, the spore-suspension was allowed to air-dry for 4 hours. Then, 40 microliter of a treatment as presented in the list above was applied by pipette to each wound. All fruits were kept at room temperature (20° C.). Wounds of the apples were checked after 4 and 7 days of incubation. […] Replicates: All treatments for the apple experiment were performed on six individual apples with two wounds each resulting in 12 wounds per treatment.

[4] = saturation level of natamycin in water by HPLC; type: physicochemical
Saccharomyces cerevisiae [5] = test: filter disc inhibition zone on PDA Petri dishes (90 mm, 50 μL), Example 4; type: cell-based; conditions: 3 mM natamycin alone; after 16 h
Description: Saccharomyces cerevisiae (at least 10^5 cfu/mL) was distributed on Petri dishes with a diameter of 90 mm containing 10 ml PDA agar (Carl Roth, pH about 6) using sterilized swabs. Filter paper discs (Whatman) with a diameter of 6 mm were loaded with 50 μL of a solution containing a concentration of 3 mM natamycin plus 0.3 mM of a mixture of oleic acid sodium salt and stearic acid sodium salt in a 50/50 ratio (this mixture will be referred to as fatty acid mix). As controls, the effect of the fatty acid mix alone (without natamycin) was tested on yeast growth. Yeast growth was also determined after incubation on medium without both natamycin and fatty acid salts. The size of the inhibition zone is a result of the natamycin and/or fatty acid salts released from the sample disc. After 16 h of incubation in the stove the size of the inhibition zone was measured using a digital caliper gauge. The data are presented as square mm and are an average of four replicas.

[6] = solubility of natamycin in aqueous composition (description); type: physicochemical; conditions: presence of fatty acids, monoglycerides and/or derivatives; pH between 5 and 9
[7] = 0.03 mM fatty acid salt without natamycin
[8] = 0.09 mM fatty acid salt without natamycin
[9] = 0.3 mM fatty acid salt without natamycin
[10] = 0.9 mM fatty acid salt without natamycin

SMILES: CCCCCCCC(=O)O [caprylic acid ammonium salt, caprylic acid]
- effect on natamycin-inhibited yeast growth (Saccharomyces cerevisiae [1]; caprylic acid salt 0.09, 0.3 and 0.9 mM with natamycin): enhanced
- inhibition of growth of yeast by the salts themselves (Saccharomyces cerevisiae [1]; without natamycin): did not inhibit

SMILES: CCCCCCCC(=O)O [caprylic acid-Na, caprylic acid]
- surface of inhibition zone (Saccharomyces cerevisiae [2]; [7]): 0 square mm
- surface of inhibition zone (Saccharomyces cerevisiae [2]; [8]): 0 square mm
- surface of inhibition zone (Saccharomyces cerevisiae [2]; [9]): 0 square mm
- surface of inhibition zone (Saccharomyces cerevisiae [2]; [10]): 0 square mm

- Dissolved natamycin in water ([4]; ratio natamycin:salts of oleic and stearic acid mix 1:0 (g:g), room temperature): 46 mg/L
- level dissolved in water ([4]; without addition of fatty acids): about 46 ppm
- solubility of natamycin [6]: increased
SMILES: C[C@@H]1C/C=C/C=C/C=C/C=C/[C@H](O[C@@H]2O[C@H](C)[C@@H](O)[C@H](N)[C@@H]2O)C[C@@H]2O[C@](O)(C[C@@H](O)C[C@H]3O[C@@H]3/C=C/C(=O)O1)C[C@H](O)[C@H]2C(=O)O [Natamycin, natamycin]
- sensitivity of Fusarium oxysporum [3]: > 7 µM
- Lesion area on apple fruits (Botrytis cinerea; 5 days after inoculation): 130 mm^2
- Lesion area on apple fruits (Botrytis cinerea; 7 days after inoculation): 308 mm^2
- Antifungal activity (%) (Botrytis cinerea; incubation 5 days): 62%
- Antifungal activity (%) (Botrytis cinerea; incubation 7 days): 50%
- surface of inhibition zone (Saccharomyces cerevisiae [2]; 3 mM natamycin, 0 mM fatty acid salt, 40 μl per disc): 585 square mm
- surface of inhibition zone (Saccharomyces cerevisiae [1]; 3 mM natamycin, 0 mM caprylic acid salt): 788 square mm
- Inhibition zone (Saccharomyces cerevisiae [5]): 480 square mm

SMILES: CCCC(=O)O [butanoic acid-Na, butanoic acid]
- surface of inhibition zone (Saccharomyces cerevisiae [2]; [7]): 0 square mm
- surface of inhibition zone (Saccharomyces cerevisiae [2]; [8]): 0 square mm
- surface of inhibition zone (Saccharomyces cerevisiae [2]; [9]): 0 square mm
- surface of inhibition zone (Saccharomyces cerevisiae [2]; [10]): 0 square mm

SMILES: CCCCCCCC(=O)O [caprylic acid potassium salt, caprylic acid]
- surface of inhibition zone (Saccharomyces cerevisiae [1]; 0.03 mM caprylic acid salt without natamycin): 0 square mm
- surface of inhibition zone (Saccharomyces cerevisiae [1]; 0.09 mM caprylic acid salt without natamycin): 0 square mm
- surface of inhibition zone (Saccharomyces cerevisiae [1]; 0.3 mM caprylic acid salt without natamycin): 0 square mm
- surface of inhibition zone (Saccharomyces cerevisiae [1]; 0.9 mM caprylic acid salt without natamycin): 0 square mm

SMILES: CCCCCCCCCCCCCCCCCC(=O)[O-].[Na+] [stearic acid-Na, sodium stearate]
- surface of inhibition zone (Saccharomyces cerevisiae [2]; [7]): 0 square mm
- surface of inhibition zone (Saccharomyces cerevisiae [2]; [8]): 0 square mm
- surface of inhibition zone (Saccharomyces cerevisiae [2]; [9]): 0 square mm
- surface of inhibition zone (Saccharomyces cerevisiae [2]; [10]): 0 square mm

SMILES: CCCCCCCCCCCCCCCC(=O)[O-].[Na+] [palmitic acid-Na, sodium palmitate]
- surface of inhibition zone (Saccharomyces cerevisiae [2]; [7]): 0 square mm
- surface of inhibition zone (Saccharomyces cerevisiae [2]; [8]): 0 square mm
- surface of inhibition zone (Saccharomyces cerevisiae [2]; [9]): 0 square mm
- surface of inhibition zone (Saccharomyces cerevisiae [2]; [10]): 0 square mm
